Experimental data published in patent US10681909B2, “Herbicidal triazoles” (FMC Corporation, priority 2014, dated 2020).

Legend:
blackgrass [1] = assay: Test D preemergence; assay type: in vivo, Alopecurus myosuroides; conditions: scale 0 to 100
How it was run: (§1)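 In this greenhouse herbicide screen, the preemergence spray went onto freshly planted silt loam, and the postemergence spray went onto seedlings 2 to 18 cm high. The compounds were carried in a surfactant-containing solvent. Plants were visually evaluated against controls after 14–21 d; a dash denotes no test result.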

soybean = assay: Test C preemergence; assay type: in vivo, Glycine max; conditions: for Soybean plant response rating (0 to 100): Preemergence, visual rating after 13 to 15 d
How it was run: (§2)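 Seeds were planted in loam soil plus sand and sprayed preemergence. In parallel, potted plants in a peat-based medium were sprayed postemergence at 2 to 18 cm (1- to 4-leaf stage). Compounds were formulated in non-phytotoxic solvent with surfactant.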

morningglory [2] = assay: Test A postemergence; assay type: in vivo, Ipomoea spp.; conditions: Ipomoea, post-emergence, 240 h, 0 to 100 scale (0 no effect, 100 complete control), approx. 10 d, read-out: Plant response rating, Morningglory
How it was run: (§3)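 Pre- and postemergence spray tests in a loam soil–sand mixture: seeded soil received a directed spray, while established seedlings 2–10 cm high at the one- to two-leaf stage were treated over the top. Compounds were carried in non-phytotoxic solvent with surfactant.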

corn = assay: Test C preemergence; assay type: in vivo, Zea mays; conditions: for Plant response rating (scale of 0 to 100 where 0 is no effect and 100 is complete control): Corn, preemergence; for Corn plant response rating (0 to 100): Preemergence, visual rating after 13 to 15 d
How it was run: as §2

blackgrass [3] = assay: Test C preemergence; assay type: in vivo, Alopecurus myosuroides; conditions: for Plant response rating (scale of 0 to 100 where 0 is no effect and 100 is complete control): Blackgrass, preemergence; for Blackgrass plant response rating (0 to 100): Preemergence, visual rating after 13 to 15 d
How it was run: as §2

velvetleaf = assay: Test C preemergence; assay type: in vivo, Abutilon theophrasti; conditions: for Velvetleaf plant response rating (0 to 100): Preemergence, visual rating after 13 to 15 d
How it was run: as §2

canarygrass = assay: Test D preemergence; assay type: in vivo, Phalaris minor; conditions: scale 0 to 100
How it was run: as §1

crabgrass, large = assay: Test C preemergence; assay type: in vivo, Digitaria sanguinalis; conditions: for Plant response rating (scale of 0 to 100 where 0 is no effect and 100 is complete control): Crabgrass, Large, preemergence; for Crabgrass, Large plant response rating (0 to 100): Preemergence, visual rating after 13 to 15 d
How it was run: as §2

kochia = assay: Test D preemergence; assay type: in vivo, Kochia scoparia; conditions: scale 0 to 100
How it was run: as §1

morningglory [4] = assay: Test A preemergence; assay type: in vivo, Ipomoea spp.; conditions: Ipomoea, pre-emergence, 240 h, 0 to 100 scale (0 no effect, 100 complete control), read-out: Plant response rating, Morningglory
How it was run: as §3

blackgrass [5] = assay: Test D postemergence; assay type: in vivo, Alopecurus myosuroides; conditions: scale 0 to 100
How it was run: as §1

CCc1nc(-c2ccc(C(F)(F)F)cc2)nn1Cc1ccnc(C(F)(F)F)c1 [Compound 1, 4-[[5-ethyl-3-[4-(trifluoromethyl)phenyl]-1H-1,2,4-triazol-1-yl]methyl]-2-(trifluoromethyl)pyridine]
Plant response rating: Blackgrass (blackgrass [1]; 31 g ai/ha): 15 | Plant response rating: Blackgrass (blackgrass [1]; 62 g ai/ha): 35 | Plant response rating: Blackgrass (blackgrass [1]; 125 g ai/ha): 35 | Plant response rating: Blackgrass (blackgrass [1]; 250 g ai/ha): 65 | Soybean plant response rating (0 to 100) (soybean; 31 g ai/ha): 0 | Soybean plant response rating (0 to 100) (soybean; 62 g ai/ha): 5 | Plant response rating (scale of 0 to 100 where 0 is no effect and 100 is complete control) (soybean; Soybean, preemergence, 250 g ai/ha): 20 | pest or weed control at 125 g/ha (morningglory [2]; 125 g ai/ha): 90% | pest or weed control at 500 g/ha (morningglory [2]; 500 g ai/ha): 100% | Plant response rating (scale of 0 to 100 where 0 is no effect and 100 is complete control) (corn; 125 g ai/ha): 25 | Plant response rating (scale of 0 to 100 where 0 is no effect and 100 is complete control) (corn; 250 g ai/ha): 40 | Corn plant response rating (0 to 100) (corn; 31 g ai/ha): 5 | Corn plant response rating (0 to 100) (corn; 62 g ai/ha): 15 | Plant response rating (scale of 0 to 100 where 0 is no effect and 100 is complete control) (blackgrass [3]; 125 g ai/ha): 80 | Plant response rating (scale of 0 to 100 where 0 is no effect and 100 is complete control) (blackgrass [3]; 250 g ai/ha): 85 | Blackgrass plant response rating (0 to 100) (blackgrass [3]; 31 g ai/ha): 5 | Blackgrass plant response rating (0 to 100) (blackgrass [3]; 62 g ai/ha): 75 | Velvetleaf plant response rating (0 to 100) (velvetleaf; 31 g ai/ha): 15 | Velvetleaf plant response rating (0 to 100) (velvetleaf; 62 g ai/ha): 30 | Plant response rating (scale of 0 to 100 where 0 is no effect and 100 is complete control) (velvetleaf; Velvetleaf, preemergence, 250 g ai/ha): 75 | Plant response rating: Canarygrass (canarygrass; 31 g ai/ha): 5 | Plant response rating: Canarygrass (canarygrass; 62 g ai/ha): 30 | Plant response rating: Canarygrass (canarygrass; 125 g ai/ha): 60 | Plant response rating: Canarygrass (canarygrass; 250 g ai/ha): 100 | Plant response rating (scale of 0 to 100 where 0 is no effect and 100 is complete control) (crabgrass, large; 125 g ai/ha): 100 | Plant response rating (scale of 0 to 100 where 0 is no effect and 100 is complete control) (crabgrass, large; 250 g ai/ha): 100 | Crabgrass, Large plant response rating (0 to 100) (crabgrass, large; 31 g ai/ha): 98 | Crabgrass, Large plant response rating (0 to 100) (crabgrass, large; 62 g ai/ha): 100 | Plant response rating: Kochia (kochia; 62 g ai/ha): 70 | Plant response rating: Kochia (kochia; 125 g ai/ha): 100 | Plant response rating: Kochia (kochia; 250 g ai/ha): 100 | pest or weed control at 125 g/ha (morningglory [4]; 125 g ai/ha): 30% | pest or weed control at 500 g/ha (morningglory [4]; 500 g ai/ha, approx. 10 d): 80% | Plant response rating: Blackgrass (blackgrass [5]; 31 g ai/ha): 10 | Plant response rating: Blackgrass (blackgrass [5]; 62 g ai/ha): 20 | Plant response rating: Blackgrass (blackgrass [5]; 125 g ai/ha): 30 | Plant response rating: Blackgrass (blackgrass [5]; 250 g ai/ha): 45
